Entries after “also recorded” stand apart in the source; their conditions may differ.
Legend:
cells = conditions: high doses; cited from earlier work
HeLa S-3 cells [1] = test: cells; format: cell-based, human; conditions: for viability at 10 µg/mL: Homo sapiens, HeLa S3, 24 hours
Experimental: Experiments were carried out with HeLa S-3 cells grown in Eagle's minimal essential medium supplemented with 10% fetal calf serum. […] No antifungal agent was used.
Cell survival was assayed by colony-forming ability of plated single cells to obtain quantitative dose-survival curves. Details of cloning experiments including colony court have been described elsewhere (See, e.g., Kim et al. supra).
Plated a synchronous monolayer cells were heated to within 0.05° C. of the desired temperature by totally immersing plastic culture flasks in a water bath. Water bath temperatures were verified by a National Bureau of Standards calibrated thermometer.
The pH of the culture medium was adjusted by varying the CO2 content of the gas phase within the flasks. […] The pH of the culture medium was monitored throughout the treatment procedures by sealing a combination electrode in a treatment vessel and monitored with a temperature-compensated digital pH meter.
(§1) The "glucose-deprived" medium was prepared by adding 10% dialyzed fetal calf serum to the culture medium without glucose. The dialyzed fetal calf serum contained less than 1 mg glucose per 100 ml so that the final concentration of glucose in the "glucose-deprived" medium was less than 0.001 mg per ml.

MCA mammary carcinoma = test: Radiation enhancement in the transplanted MCA mammary carcinoma, with or without mild hyperthermia; format: in vivo, murine
Experimental: Nicotinamide was administered intraperitoneal one (1) […] before irradiation. Localized mild hyperthermia (41° C.) was applied for one (1) hour immediately prior to irradiation.

[2] = tested on: cultured tumor cell lines; conditions: cited from earlier work
[3] = tested on: glycolytic and mitochondrial bound enzymes; conditions: cited from earlier work
HeLa S-3 cells [4] = test: Effect of gossypol on cell survival at elevated temperature, pH and glucose conditions; format: cell-based, human; conditions: for viability at 10 µg/mL: Homo sapiens, HeLa S3
Experimental: (§2) Experiments were carried out with HeLa S-3 cells grown in Eagle's minimal essential medium supplemented with 10% fetal calf serum.
Plated monolayer cells were heated within 0.05° of the desired temperature by totally immersing plastic culture flasks in a heated water bath. Water bath temperatures were verified by a National Bureau of Standards thermometer.
(§3) The pH of the culture medium was adjusted by varying the CO2 content of the gas phase within the flasks. The buffering system of Eagle's minimal essential medium consisted of 26 mM NaHCO3 at 5% CO2 for neutral pH of 7.4. To obtain a pH of 6.7, for example, the flasks were flushed with the gas mixtures containing 26% CO2. The pH of the culture medium was monitored throughout the treatment procedures by sealing a combination electrode in a treatment vessel and monitored with temperature-compensated digital pH meter.
as §1
(§4) Gossypol was dissolved in DMSO immediately prior to experiments. DMSO produced no enhancement of hyperthermic cytotoxicity with the range studied.
For example, at 10 μg/m. and 2 hours exposure at 42° C., the cells survival is reduced to 1% under acidic condition. Heat treatment alone reduces the cell survival to only 50% of the control.
Since gossypol has been reported to interfere with cellular energy metabolism, experiments were performed to determine the influence of glucose on the cytotoxic effect of gossypol. […] The survival of glucose-fed cells exposed to the same treatment was approximately 10% while that of glucose-deprived cells can further enhance the cytotoxic effect of gossypol at elevated temperature.

spermatogenesis = conditions: in vivo; cited from earlier work
testicular tissues = conditions: cited from earlier work
HeLa cells = test: Effect of gossypol on cell multiplication at 37° C.; format: cell-based, human
Experimental: as §2, §3, §4
Preliminary experiments were carried out to determine the effect of gossypol on cell division. Exponentially growing HeLa cells were exposed to the drug for 72 hours at 37° C. Control cells grew exponentially with a doubling time of approximately 19 hours.

[5] = tested on: C3H mammary adenocarcinoma; conditions: transplanted C3H mammary adenocarcinoma; cited from earlier work
Meth-A fibrosarcoma = test: Radiation enhancement by nicotinamide in Meth-A fibrosarcoma; format: in vivo, murine; conditions: radiosensitive tumor
Excerpt: The mechanism by which nicotinamide produces radiation enhancement is not established.

[6] = tested on: EMT-6, Lewis Lung, and RIF-1 tumors; conditions: injection prior to radiation treatment; cited from earlier work
[7] = in vivo; cited from earlier work
cell culture models = test: Radiation enhancement by nicotinamide in cell culture; format: cell-based
Excerpt: (22) See FIGS. 9 and 10. As noted previously, the following DMF's were obtained for the respective experimental conditions: Nicotinamide+Radiation Therapy=1.36, Hyperthermia+Radiation Therapy=1.36, Nicotinamide+Hyperthermia+Radiation Therapy=1.64.

[8] = tested on: poly-ADP ribose synthetase; conditions: cited from earlier work
[9] = Tolerability of nicotinamide in mice; conditions: optimal dose of 0.5 gm/kg (1.5 gm/m^2)
[10] = acidic pH, glucose-deprived cells
[11] = human cancer cells (HeLa), heated

For `COC(=O)c1ccccc1-c1c2ccc(=N)cc-2oc2cc(N)ccc12` [rhodamine 123], the “effects of continuous exposure” value (cells) is listed as “inhibit oxidative phosphorylation, to arrest cells in G1 phase, and to induce loss of reproductive capacity”, the “cell surviving fraction, initial 4 hour exposure” value (HeLa S-3 cells [1]; 10 μg/ml, 4 hours, 37° C., glucose-fed or glucose-deprived) is listed as “no appreciable reduction in the cell surviving fraction” and the “cell survival at 37° C., exposure limit” value (HeLa S-3 cells [1]; 37° C., 4 hour) is listed as “did not produce any detectable reduction in cell survival”. The “effect on hyperthermic cytotoxicity, glucose-deprived vs glucose-fed cells” value (HeLa S-3 cells [1]; 40, 41 and 42° C., up to 4 hours) was “selectively increased the cytotoxic effects of hyperthermia in glucose-deprived cells relative to glucose-fed cells”, the viability at 10 µg/mL (HeLa S-3 cells [1]; 10 μg/ml, 37° C., glucose-deprived, read-out: surviving fraction in the absence of glucose) was < 1% and the viability at 10 µg/mL (HeLa S-3 cells [1]; 10 μg/ml, 37° C., glucose-fed, read-out: surviving fraction in the presence of glucose) was 80%. The “cytotoxicity at acidic pH relative to pH 7.4” value (HeLa S-3 cells [1]; [10]) was “less than that observed at pH 7.4”, the “influence of acidic pH on cytotoxicity of heat” value (HeLa S-3 cells [1]; [10]) was “did not substantially enhance the cytotoxicity of heat in glucose-deprived cells” and the “dependence of potentiation of heat effects” value (HeLa S-3 cells [1]; glucose-deprived cells, two hours) was “dependent on the elevated temperature and drug concentration in glucose-deprived cells”. The “hyperthermia enhancement in glucose-fed cells” value (HeLa S-3 cells [1]; glucose-fed, different temperatures for two hours) was “No hyperthermia enhancement” and the hyperthermic sensitization (HeLa S-3 cells [1]; [11]) was “effective hyperthermic sensitizers of human cancer cells”.

With `O=C(O)c1cccnc1` [nicotinic acid] the “radiation enhancement, MCA mammary tumor, nicotinic acid” value (MCA mammary carcinoma; even at the LD10 dosage) was “did not produce radiation enhancement”.

In the case of `Cc1cc2c(C(C)C)c(O)c(O)c(C=O)c2c(O)c1-c1c(C)cc2c(C(C)C)c(O)c(O)c(C=O)c2c1O` [gossypol], the anti-tumor effects [2] is listed as “anti-tumor effects against cultured tumor cell lines”, the enzyme inhibition [3] is listed as “inhibition of glycolytic and mitochondrial bound enzymes” and the “cytotoxicity, glucose deprivation at 37° C.” value (HeLa S-3 cells [4]; 10 μg/ml, glucose-deprived, 37° C., pH 7.4) is listed as “no apparent cytotoxicity”. The “cell killing, glucose deprivation at 42° C.” value (HeLa S-3 cells [4]; 10 μg/ml, glucose-deprived, 42° C. for 4 hours, pH 7.4) was “a substantial increase in cell killing”, the “drug toxicity (cell survival)” value (HeLa S-3 cells [4]; 5 and 10 μg/ml, up to 4 hours, 37° C., acidic or neutral conditions) was “no appreciable drug toxicity” and the viability at 10 µg/mL (HeLa S-3 cells [4]; 10 μg/ml, 2 hours exposure at 42° C., acidic condition (heat alone: 50% of control), read-out: cell survival) was 1%. For the same compound, the viability at 10 µg/mL (HeLa S-3 cells [4]; 10 μg/ml, glucose-fed, 42° C. for 4 hours, pH 7.4, read-out: survival of glucose-fed cells) was ~10%, the “pH dependence of cytotoxic effect of hyperthermia on drug-treated cells” value (HeLa S-3 cells [4]; elevated temperature, acidic vs neutral) was “most pronounced under acidic conditions” and the hyperthermic sensitization (HeLa S-3 cells [4]; [11]) was “effective hyperthermic sensitizers of human cancer cells”. The inhibition of spermatogenesis (spermatogenesis) was “inhibitor of spermatogenesis”, the “toxicity to testicular tissues” value (testicular tissues; in vivo) was “selectively toxic to testicular tissues” and the “effect on other tissues” value (testicular tissues; non-testicular tissues) was “no observable effect on other tissues”. The “growth rate versus control” value (HeLa cells; 1.25 μg/ml) was “the same as that of the control cells”, the doubling time (HeLa cells; 2.5 μg/ml, incubation times greater than 24 hours) was “a lengthening of doubling time was observed” and the “growth curve versus control” value (HeLa cells; 2.5 μg/ml, initial 24 hours) was “not significantly different from the control”. The “cell growth (multiplication)” value (HeLa cells; 5, 10 and 20 μg/ml, 72 hours) was “grew exponentially for the first 24 hour period and then remained stationary”.

In the case of `NC(=O)c1cccnc1` [nicotinamide], the radiation enhancing effects [5] is given as “radiation enhancing effects”, the “radiation enhancement in oxic Meth-A fibrosarcoma” value (Meth-A fibrosarcoma) is given as “inactive against the oxic Meth-A fibrosarcoma model; also recorded: no radio-enhancing effect” and the “optimal timing of drug for radiation enhancement” value [6] is given as 1 to 3 h. The safety in humans [7] was “safe and associated with only a low incidence of side effects”, the “activity in cell culture models” value (cell culture models; in our hands) was “not active in cell culture models” and the “radiation enhancement in cell culture” value (cell culture models; nicotinamide concentrations <10 mM) was “No radiation enhancement”. The “inhibition of poly-ADP ribose synthetase” value [8] was “inhibitor of poly-ADP ribose synthetase”, the “radiation dose modification factor, nicotinamide + hyperthermia + radiation” value (MCA mammary carcinoma; 0.5 gm/kg 1 hour prior to radiation, 41° C. for one hour, b79 statement) was 1.77 and the “DMF, Nicotinamide+Hyperthermia+Radiation Therapy” value (MCA mammary carcinoma; 125 to 500 mg/kg i.p. one hour prior to irradiation, 1 hour heating at 41° C., b86 statement) was 1.64. For the same compound, the “DMF, Nicotinamide+Radiation Therapy” value (MCA mammary carcinoma; 125 to 500 mg/kg i.p. one hour prior to irradiation, b86 statement) was 1.36, the “enhancement of effects of radiation and radiation plus hyperthermia” value (MCA mammary carcinoma; 125 to 500 mg/kg i.p., one hour prior to irradiation, 41° C. 1 hour) was “clear enhancement of the effects of radiation and radiation plus hyperthermia” and the “DMF, nicotinamide plus radiation (without hyperthermia)” value (MCA mammary carcinoma; without hyperthermia, b79 statement) was 1.35. The toxicity in mice [9] was “non-toxic in mice”.

Source: patent US5260327A, “Methods for inhibiting the proliferation of brain and hepatic metastases by using lonidamine” (priority 1992, dated 1993)
